According to ChEMBL document CHEMBL1201862, “PubChem BioAssay data set” (2004):
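In this assay, cells in 96-well plates receive the compound at five concentrations for 48 hours. Endpoints are linearly interpolated between the surrounding concentrations. The concentration for 50% growth inhibition is given as GI50.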 Active and inactive are the calls of the source. Rule as the data show it: active = GI50 up to about 1.1 µM and inactive = higher.

What was measured:
Experiment in all cases: NCI anticancer screen, dose series, 48 h
[1] = system: HCT-116
[2] = system: M19-MEL
[3] = system: NCI-H226
[4] = system: SF-539
[5] = system: HOP-62
[6] = system: A549
[7] = system: SNB-78
[8] = system: A498
[9] = system: M14
[10] = system: SR
[11] = system: DLD-1
[12] = system: U-251
[13] = system: DMS-273
[14] = system: MCF7
[15] = system: T47D
[16] = system: Hs-578T
[17] = system: DU-145
[18] = system: MDA-MB-435
[19] = system: PC-3
[20] = system: BT-549

Measured: GI50

O=C(/C(=C/c1ccc(O)cc1)c1ccccc1)c1ccccc1
inactive: [1] 16.7 µM | [2] 18.4 µM | [3] 16.7 µM | [4] 16.6 µM | [5] 19.3 µM | [6] 18 µM | [7] 24 µM | [8] 17.9 µM | [9] 17.1 µM | [10] 23.8 µM | [11] 15.9 µM | [12] 16.2 µM

Cc1ccc(C2NC(=O)c3ccccc3N2)s1 (stereo not given)
inactive: [1] 6.31 µM | [2] 6.12 µM | [13] 4.25 µM | [4] 3.28 µM | [5] 4.37 µM | [6] 8.83 µM | [7] 33.2 µM | [8] 6.78 µM | [9] 8.05 µM | [10] 8.3 µM | [11] 5.02 µM | [12] 4.6 µM

C=CCCCCn1c2ccccc2c2c(C)c3cnccc3c(C)c21
inactive: [1] 4.63 µM | [3] 10.9 µM | [13] 5.14 µM | [4] 12.5 µM | [5] 16.2 µM | [6] 8.99 µM | [7] 12.1 µM | [8] 5.86 µM | [14] 7.73 µM | [11] 7.11 µM | [12] 12.5 µM

CCOC(=O)C(=O)Nc1ccccc1CC
inactive: [1] > 100 µM | [2] > 100 µM | [3] > 100 µM | [4] > 100 µM | [5] > 100 µM | [6] > 100 µM | [7] > 10 µM | [9] > 100 µM | [11] > 100 µM | [12] > 100 µM

CCOC(=O)C1(Cc2ccc3ccccc3c2)CCCCC(=O)N1 (stereo not given)
inactive: [2] 48.6 µM | [13] 13.5 µM | [5] 44.6 µM | [6] 39.1 µM | [7] 52.7 µM | [9] 39.3 µM | [11] 25.6 µM | [12] 41.1 µM

N#CCC(=O)N/N=C1/C(=O)N(c2ccc(Cl)cc2)C(=O)C(=O)C1c1nc2ccccc2s1 (stereo not given)
inactive: [1] 53.7 µM | [2] 40.7 µM | [3] 26.3 µM | [13] > 100 µM | [5] > 100 µM | [6] > 100 µM | [7] > 100 µM | [8] > 100 µM | [9] > 100 µM | [11] > 100 µM | [12] > 100 µM

Nc1c(/N=N/c2ccc(-c3ccc(/N=N/c4c(O)ccc5cc(S(=O)(=O)O)cc(S(=O)(=O)O)c45)cc3)cc2)c(S(=O)(=O)O)cc2cc(S(=O)(=O)O)c(/N=N/c3ccccc3)c(O)c12
inactive: [1] > 100 µM | [2] > 100 µM | [3] 19.6 µM | [13] > 86.9 µM | [4] > 100 µM | [5] > 100 µM | [6] > 70.8 µM | [7] > 84.3 µM | [8] > 100 µM | [14] > 100 µM | [11] > 100 µM | [12] > 100 µM

OCc1ccccc1C1CSCSC1
inactive: [1] > 100 µM | [2] > 100 µM | [3] > 100 µM | [13] > 100 µM | [4] > 100 µM | [6] > 100 µM | [7] > 100 µM | [11] > 100 µM | [12] > 100 µM

CCCCCCCCCC/C=C/C=O
inactive: [1] > 100 µM | [2] > 100 µM | [13] > 100 µM | [4] > 100 µM | [6] > 100 µM | [7] > 100 µM | [8] > 100 µM | [9] > 100 µM | [10] > 100 µM | [11] > 100 µM | [12] > 100 µM

C=CC[N+](CCO)(CCO)CCCCCCCCCCCCCCCCCC
inactive: [1] 3.4 µM | [2] 3.34 µM | [3] 7.78 µM | [13] 2.26 µM | [4] 3.54 µM | [5] 6.38 µM | [6] 11.3 µM | [7] 3.12 µM | [8] 15.6 µM | [14] 7.1 µM | [11] 5.93 µM | [12] 1.97 µM

CC1=C(C(=O)Nc2ccccc2)C(c2ccc3c(c2)OCO3)C(C(=O)Nc2ccccc2)=C(C)N1
inactive: [2] 40.4 µM | [3] 39.6 µM | [13] 26.7 µM | [4] 26.5 µM | [5] 41.8 µM | [6] 49.5 µM | [8] 19.5 µM | [9] 33.7 µM | [11] 36.8 µM

COc1ccc(Nc2nc3ccccc3nc2-c2cccs2)cc1
inactive: [1] > 100 µM | [3] > 100 µM | [13] > 100 µM | [4] > 100 µM | [5] 69.7 µM | [6] 80.4 µM | [7] 39.5 µM | [8] 42.6 µM | [9] 47.1 µM | [10] 55 µM | [11] > 100 µM | [12] > 100 µM

CC1=C2[C@@H](c3ccccc3)C3C=CC2(C=C3C(F)(F)F)N(C(=O)NC2CCCCC2)C1=O (stereo not given in full)
inactive: [1] 32.4 µM | [2] 54.6 µM | [13] 80 µM | [4] 52.4 µM | [5] 68.1 µM | [6] 67.5 µM | [7] 36.1 µM | [8] > 100 µM | [9] 81.3 µM | [10] 15.8 µM | [11] > 100 µM | [12] > 100 µM

N/C(S)=N/N=C/c1ccc(O)cn1
inactive: [15] 4.72 µM | [1] 10.9 µM | [16] 316 µM | [2] 11.1 µM | [17] 2.96 µM | [18] 10.5 µM | [3] 24.2 µM | [13] 3.75 µM | [4] 2.26 µM | [5] 4.59 µM | [6] 47.6 µM | [8] 32 µM | [9] 5.11 µM | [19] 7.1 µM | [10] 1.64 µM | [20] 44.5 µM | [14] 3.18 µM | [11] 21.4 µM | [12] 6.18 µM
